# Laboratory results taken from patent publication US20150313891A1, “NEURONAL NICOTINIC AGONISTS AND METHODS OF USE” (AbbVie Inc., priority 2014, published 2015).
# Key:
# [1] = test system: subjects with schizophrenia; assay: Tolerability in subjects with schizophrenia; type: in vivo, human; settings: doses up to 25 mg QD, including 10 mg QD and 25 mg QD
# [2] = test system: MPTP-lesioned monkeys; assay: Cognitive testing, object retrieval task; type: in vivo, squirrel monkeys (Saimiri sciureus); settings: for Attempts / Latency: 90 min after first L-dopa gavage, mean ± SEM, 5 monkeys
# Description: To evaluate cognitive performance, an object retrieval task was used that measures a component of prefrontal cortex dependent cognitive control involving inhibition of an initial learned response after subsequent spatial reversals (Lyons et al. 2000, Lyons et al. 2004, Zhang et al. 2013). The apparatus used consists of a clear Plexiglas box (8×8×8 cm) with one open side, containing a small piece of marshmallow (Lyons et al. 2000, Lyons et al. 2004). The box is locked into place on a metallic platform hooked onto the front of the monkey cage. Control and MPTP-lesioned monkeys were scored for the average time and number of trials required to retrieve the marshmallow in 30 sec. The effect of ABT-126 administration was tested once weekly on Friday. […] These latter two sets of monkeys had previously been given ABT-894 and ABT-107 but using somewhat different treatment regimens. The present study was done after a 7 wk washout period, at which point LIDs were similar in all groups. ABT-126 was administered orally in a small cracker 30 min before L-dopa/carbidopa twice daily. […] It was provided in the drinking water starting at 50 μg/ml for 2 days, increased to 150 μg/ml for another two days and then maintained at 300 μg/ml. ABT-126 was tested at 0.03, 0.10, 0.30 and 1.0 mg/kg, with each dose of ABT-126 tested for 1 or 2 wk. Statistical analyses were done using GraphPad Prism. One- or two-way ANOVA was used for multiple group comparisons followed by a Newman-Keuls or Bonferroni post hoc test. Differences in rating scores between groups were analyzed using nonparametric tests (Mann-Whitney test). Data for rating scores was provided as the median (nonparametric) or mean±SEM (parametric). A value of P ≦0.05 is considered statistically significant. Values expressed are the mean±SEM of the indicated number of monkeys.
# [3] = test system: AD; assay: Phase 2a study, symptomatic treatment of AD; type: in vivo, human
# [4] = test system: MPTP-lesioned monkeys; assay: L-dopa-induced dyskinesias (LIDs) ratings in MPTP-lesioned monkeys; type: in vivo, squirrel monkeys (Saimiri sciureus)
# Description: The objective of the current study was to test the effect of the α7 nAChR agonist ABT-126 for its ability to reduce L-dopa-induced dyskinesias (LIDs) in MPTP-lesioned monkeys. […] All monkeys were orally gavaged with L-dopa/carbidopa twice daily, which led to the development of stable abnormal involuntary movements or dyskinesias. […] These latter two sets of monkeys had previously been given ABT-894 and ABT-107 but using somewhat different treatment regimens. The present study was done after a 7 wk washout period, when LIDs were similar in all groups. ABT-126 was administered orally in a small cracker 30 min before L-dopa (10 mg/kg) and carbidopa (2.5 mg/kg). […] ABT-126 was tested at 0.03, 0.10, 0.30 and 1.0 mg/kg, with each dose of ABT-126 tested for 1 or 2 wk. […] ABT-126 at 0.10 mg/kg reduced LIDs by ˜40%, while the 0.30 and 1.0 mg/kg ABT-126 doses decreased LIDs up to 60%. We also tested the effect of ABT-126 (1.0 mg/kg) for its ability to reduce LIDs at a higher dose of L-dopa (15 mg/kg)/carbidopa (3.75 mg/kg). The higher dose of L-dopa led to greater LID scores in vehicle treated monkeys. […] The effect of ABT-126 was most pronounced during the latter weeks, possibly because of a greater decline with continued drug treatment. A washout is in progress to determine if LIDs return to vehicle-treated levels after ABT-126 discontinuation. There was no effect of the drug on parkinsonism or cognitive ability. Adult male and female squirrel monkeys (Saimiri sciureus) (n=21) weighing 0.6-1.2 kg were obtained from World Wide Primates (Miami, Fla.). The monkeys were quarantined for one month, as mandated by California state regulations. All studies were performed according to the NIH Guide for the Care and Use of Laboratory Animals, and were approved by the Institutional Animal Care and Use Committee at SRI. Animals were housed separately in a room maintained at 27±3° C., with a 12:12-h light/dark cycle. Monkey chow, fruits, and vegetables were provided over the course of the day, with water freely available. After quarantine, all monkeys were trained to perform various motor and other tasks for future assessment of parkinsonism and other behaviors (Quik et al. 2013b, Zhang et al. 2013, Quik et al. 2007, Quik et al. 2013a). They were then injected with saline (n=5) or 2.0 mg/kg 1-methyl-4-phenyl-1,2,3,6-tetrahydropyridine sc (MPTP; Sigma-Aldrich, St. Louis, Mo.) dissolved in saline (n=21), as described (Quik et al. 2013b, Zhang et al. 2013, Quik et al. 2007, Quik et al. 2013a). […] These include spatial hypokinesia (use of available cage space), body bradykinesia (slowness in body movement), manual dexterity in both left and right hands, balance (ability to hold on to the cage bars), freezing, and action tremor as described (Quik et al. 2013b, Zhang et al. 2013, Quik et al. 2007, Quik et al. 2013a). MPTP injections were repeated (1.5-1.9 mg/kg sc per time) if the monkeys were not parkinsonian and to maintain parkinsonism. Parkinsonism was rated once weekly on Monday. The monkeys were next orally gavaged with L-dopa (10 mg/kg) plus carbidopa (2.5 mg/kg), twice daily 4.5 h apart 5 d per wk, as described (Quik et al. 2013b, Zhang et al. 2013, Quik et al. 2007, Quik et al. 2013a). While treated with L-dopa, monkeys were given only fruits and vegetables in the morning to enhance L-dopa absorption. Monkey chow, as well as more fruits and vegetables, were given several hours after the second dose of L-dopa. The monkeys were taped from 8:00 to 8:30 AM, before the first dose of L-dopa to evaluate baseline movements and then from 8:30 to 12:30 PM, following the morning L-dopa dose, to evaluate dyskinesias. LIDs were rated from the video recordings for a 1 min period every 30 min. […]
# [5] = test system: MPTP-lesioned monkeys; assay: Parkinsonian ratings in MPTP-lesioned monkeys; type: in vivo, squirrel monkeys (Saimiri sciureus); settings: for Parkinsonian scores Before L-dopa: 45 min before L-dopa; for Parkinsonian scores Before L-dopa / Parkinsonian scores After L-dopa: mean ± SEM, 5 monkeys; for Parkinsonian scores After L-dopa: 90 min after L-dopa (10 mg/kg)/carbidopa (2.5 mg/kg)
# Description: After quarantine, all monkeys were trained to perform various motor and other tasks for future assessment of parkinsonism and other behaviors (Quik et al. 2013b, Zhang et al. 2013, Quik et al. 2007, Quik et al. 2013a). […] Sigma-Aldrich, St. Louis, Mo.) dissolved in saline (n=21), as described (Quik et al. 2013b, Zhang et al. 2013, Quik et al. 2007, Quik et al. 2013a). […] These include spatial hypokinesia (use of available cage space), body bradykinesia (slowness in body movement), manual dexterity in both left and right hands, balance (ability to hold on to the cage bars), freezing, and action tremor as described (Quik et al. 2013b, Zhang et al. 2013, Quik et al. 2007, Quik et al. 2013a). MPTP injections were repeated (1.5-1.9 mg/kg sc per time) if the monkeys were not parkinsonian and to maintain parkinsonism. Parkinsonism was rated once weekly on Monday. […] These latter two sets of monkeys had previously been given ABT-894 and ABT-107 but using somewhat different treatment regimens. The present study was done after a 7 wk washout period, at which point LIDs were similar in all groups. […] It was provided in the drinking water starting at 50 μg/ml for 2 days, increased to 150 μg/ml for another two days and then maintained at 300 μg/ml. ABT-126 was tested at 0.03, 0.10, 0.30 and 1.0 mg/kg, with each dose of ABT-126 tested for 1 or 2 wk. Statistical analyses were done using GraphPad Prism. One- or two-way ANOVA was used for multiple group comparisons followed by a Newman-Keuls or Bonferroni post hoc test. Differences in rating scores between groups were analyzed using nonparametric tests (Mann-Whitney test). Data for rating scores was provided as the median (nonparametric) or mean±SEM (parametric). A value of P ≦0.05 is considered statistically significant. Values expressed are the mean±SEM of the indicated number of monkeys.
# [6] = 0.3 mg/kg ABT-126 orally, set 1
# [7] = 0.3 mg/kg ABT-126 orally, set 2
# [8] = ABT-126 orally, MPTP-lesioned L-dopa-treated monkeys
# [9] = ABT-126 1.0 mg/kg orally, higher L-dopa (15 mg/kg)/carbidopa (3.75 mg/kg), wk 6
# [10] = 0.03 mg/kg ABT-126 orally, set 1
# [11] = 0.03 mg/kg ABT-126 orally, set 2
# [12] = 300 μg/ml nicotine in the drinking water
smiles,measurement,setting,value
"c1ccc(-c2nnc(O[C@@H]3C4CC5C[C@H]3C[N@](C5)C4)s2)cc1 [ABT-126, (4s)-4-(5-phenyl-1,3,4-thiadiazol-2-yloxy)-1-azatricyclo[3.3.1.1^3,7]decane]",tolerability,[1],well tolerated
same,Attempts,[2]; [6],22.8 ± 3.2
same,Latency,[2]; [6],21.2 ± 2.8 s
same,Attempts,[2]; [7],18.0 ± 2.5
same,Latency,[2]; [7],18.3 ± 3.3 s
same,effect on cognitive ability,[2]; [8],no effect
same,efficacy in the symptomatic treatment of AD,[3],signal for efficacy
same,effect on LIDs,[4]; ABT-126 0.03 mg/kg orally 30 min before L-dopa (10 mg/kg)/carbidopa (2.5 mg/kg),no significant effect
same,reduction of LIDs,[4]; ABT-126 0.10 mg/kg orally 30 min before L-dopa (10 mg/kg)/carbidopa (2.5 mg/kg),~40%
same,"hourly time course of LIDs, FIG. 2",[4]; ABT-126 0.3 mg/kg,maximal decline
same,decrease of LIDs,[4]; ABT-126 0.30 mg/kg orally 30 min before L-dopa (10 mg/kg)/carbidopa (2.5 mg/kg),up to 60%
same,decrease of LIDs,[4]; ABT-126 1.0 mg/kg orally 30 min before L-dopa (10 mg/kg)/carbidopa (2.5 mg/kg),up to 60%
same,reduction of LIDs after the afternoon dose of L-dopa,[4]; [9],60%
same,reduction of LIDs after the morning dose of L-dopa,[4]; [9],70%
same,"decrease of LIDs, total dyskinesia scores (% vehicle), FIG. 1","[4]; increasing doses of ABT-126 (0.03 to 1.0 mg/kg), each for a wk, L-dopa 10 mg/kg plus carbidopa 2.5 mg/kg",≤ 70%
same,Parkinsonian scores Before L-dopa,[5]; [10],4.2 ± 0.4
same,Parkinsonian scores After L-dopa,[5]; [10],2.6 ± 0.4
same,Parkinsonian scores Before L-dopa,[5]; [11],3.4 ± 0.7
same,Parkinsonian scores After L-dopa,[5]; [11],2.2 ± 0.2
same,effect on parkinsonism,[5]; [8],no effect
"CN1CCCC1c1cccnc1 (stereo not drawn) [Nicotine, nicotine, reference compound]",Attempts,[2]; [12],23.8 ± 2.8
same,Latency,[2]; [12],19.2 ± 2.2 s
same,Parkinsonian scores Before L-dopa,[5]; [12],3.6 ± 0.4
same,Parkinsonian scores After L-dopa,[5]; [12],2.4 ± 0.4
